{"source": "patent US20250213649A1", "about": "“PEPTIDE HAVING ANTI-INFLAMMATORY AND ANTI-FIBROTIC ACTIVITIES AND USE THEREOF” (CAREGEN CO., LTD., priority 2022, published 2025)", "key": {"MRC-5 cells [1]": {"tested_on": "MRC-5 cells", "assay": "Western blotting of LPS-induced inflammatory cytokine/signaling proteins, MRC-5 cells", "assay_type": "cell-based", "settings": "5 μg/ml LPS, peptide 10, 50, 100, 500 μM, 24 hours, Western blot (FIG. 3)", "description": "MRC-5 cells (lung fibroblast cells) were seeded at 2×10^5 cells/well in a 6-well plate and used in the experiment. After culturing for 1 day with a culture medium containing 10% FBS, the culture medium was replaced with a culture medium without containing FBS to induce starvation for 4 hours. Cells of a normal group without being treated with any substances, a group treated with 5 μg/ml of LPS (Sigma Aldrich) (negative control group), groups treated with 5 μg/ml of LPS and the peptide of Production Example 1 (10, 50, 100, 500 μM), and a group treated with 5 μg/ml of LPS and 10 μM of Dexamethasone (DEX) (positive control group) were treated with active substances and drugs respectively and then cultured for 24 hours. The cultured cells of each treatment group and control group were lysed by adding a lysis buffer, and then centrifugation was carried out at 4° C. at 12,000 rpm for 30 minutes to obtain proteins, which were subsequently quantified using a BCA Protein Assay kit (Sigma). The proteins were subjected to SDS-PAGE (sodium dodecyl sulfate-polyacrylamide gel electrophoresis) and then subjected to electrotransfer to a membrane. The membrane to which the proteins were attached was treated with 5% skim milk for blocking and then subjected to a reaction with a primary antibody overnight at 4° C. After washing with PBS-T, the membrane was subjected to a reaction with a secondary antibody at room temperature for 1 hour, washed again with PBS-T, and then visualized by a Western detection reagent (Elpis Biotech, Daejeon, Korea) using Gel Doc (Bio-Rad, Hercules, CA, USA). The antibodies used in the experiment are as follows. An Anti-IL-1β antibody (Cell signaling technology (CST), USA), an anti-IL-6 antibody (Santa Cruz Biotechnology, USA), an anti-pJNK antibody (Santa Cruz Biotechnology, USA), an anti-pERK antibody (Cell signaling technology (CST), USA), and an anti-β-Actin antibody (Santa Cruz Biotechnology, USA)."}, "A549 cells": {"tested_on": "A549 cells", "assay": "Inhibition of inflammatory cytokine gene expression induced by IL-1β, RT-PCR, A549 cells", "assay_type": "cell-based, human", "settings": "IL-1β 2 ng/ml, peptide 10, 50, 100, 500 μM, 3 hours, RT-PCR (FIG. 8)", "description": "A549 cells (human alveolar basal epithelial cells) were seeded at 3×10^5 cells/well in a 6-well plate and used in the experiment. After culturing for 1 day with a culture medium containing 10% FBS, the culture medium was replaced with a culture medium without containing FBS to induce starvation for 4 hours. A normal group without being treated with any substances, a group treated with IL-1β (2 ng/ml) (negative control group), groups treated with IL-1β (2 ng/ml) and the peptide of Production Example 1 (10, 50, 100, 500 μM), and a group treated with IL-1β (2 ng/ml) and 10 μM of Dexamethasone (DEX) (positive control group) were treated with the above-described active substances and drugs respectively, and then RNA was extracted after 3 hours to carry out RT-PCR. RNA was extracted from the A549 cells in each of the above groups using an easy-BLUE™ Total RNA extraction kit (Qiagen, Germany). The extracted RNA was converted into cDNA with RT-PCR premix (iNtRON Biotechnology, Seongnam, Korea). After preparing a reaction mixture with PCR premix (iNtRON Biotechnology, Seongnam, Korea) and primers for each gene, PCR was carried out using a PCR machine (Eppendorf, Germany). Next, the mRNA expression pattern was determined by agarose gel electrophoresis. The base sequences of the primers used in the experiment are as shown in [Table 2]."}, "MRC-5 cells [2]": {"tested_on": "MRC-5 cells", "assay": "Inhibition of fibrosis gene expression induced by LPS, RT-PCR, MRC-5 cells", "assay_type": "cell-based", "settings": "5 μg/ml LPS, peptide 10, 50, 100, 500 μM, 3 hours, RT-PCR (FIG. 6)", "description": "MRC-5 cells (lung fibroblast cells) were seeded at 2×10^5 cells/well in a 12-well plate and used in the experiment. After culturing for 1 day with a culture medium containing 10% FBS, the culture medium was replaced with a culture medium without containing FBS to induce starvation for 4 hours. Cells of a normal group without being treated with any substances, a group treated with 5 μg/ml of LPS (Sigma Aldrich) (negative control group), groups treated with 5 μg/ml of LPS and the peptide of Production Example 1 (10, 50, 100, 500 μM), and a group treated with 5 μg/ml of LPS and 10 μM of Dexamethasone (DEX) (positive control group) were treated with the above-described active substances and drugs respectively, and then RNA was extracted after 3 hours to carry out RT-PCR. RNA was extracted from MRC-5 cells using an easy-BLUE™ Total RNA extraction kit (Qiagen, Germany). The extracted RNA was converted into cDNA using RT-PCR premix (iNtRON Biotechnology, Seongnam, Korea). After preparing a reaction mixture with PCR premix (iNtRON Biotechnology, Seongnam, Korea) and primers for each gene, PCR was carried out using a PCR machine (Eppendorf, Germany). Next, the mRNA expression pattern was determined by agarose gel electrophoresis."}}, "data": [{"sequence": "KYLLVHRPYYRR [peptide of Production Example 1]", "values": [{"measurement": "expression of IL-1β (protein)", "setting": "MRC-5 cells [1]", "value": "decreased again the expression of IL-1β, IL-6, pJNK, and pERK in a concentration-dependent manner"}, {"measurement": "expression of IL-6 (protein)", "setting": "MRC-5 cells [1]", "value": "decreased again the expression of IL-1β, IL-6, pJNK, and pERK in a concentration-dependent manner"}, {"measurement": "expression of pERK", "setting": "MRC-5 cells [1]", "value": "decreased again the expression of IL-1β, IL-6, pJNK, and pERK in a concentration-dependent manner"}, {"measurement": "expression of pJNK", "setting": "MRC-5 cells [1]", "value": "decreased again the expression of IL-1β, IL-6, pJNK, and pERK in a concentration-dependent manner"}, {"measurement": "gene expression level of COX-2", "setting": "A549 cells", "value": "decreases in a concentration-dependent manner"}, {"measurement": "gene expression level of IL-1β", "setting": "A549 cells", "value": "decreases in a concentration-dependent manner"}, {"measurement": "gene expression level of IL-6", "setting": "A549 cells", "value": "decreases in a concentration-dependent manner"}, {"measurement": "gene expression level of IL-8", "setting": "A549 cells", "value": "decreases in a concentration-dependent manner"}, {"measurement": "gene expression level of TNF-α", "setting": "A549 cells", "value": "decreases in a concentration-dependent manner"}, {"measurement": "expression level of Collagen 1A1 gene", "setting": "MRC-5 cells [2]", "value": "decreases again the expression levels of the α-SMA and Collagen 1A1 genes in a concentration-dependent manner"}, {"measurement": "expression level of α-SMA gene", "setting": "MRC-5 cells [2]", "value": "decreases again the expression levels of the α-SMA and Collagen 1A1 genes in a concentration-dependent manner"}]}]}
